Reference: patent US12453731B2, “Aniline-based WDR5 protein-protein interaction inhibitor, and preparation method and use thereof” (CHINA PHARMACEUTICAL UNIVERSITY, priority 2019, dated 2025)

What was measured:
[1] = system: Molm-13 human acute myeloid leukemia cells; test: anti-proliferative activity against leukemia cells Molm-13; format: cell-based; conditions: Homo sapiens, MOLM-13, Molm-13 cells
From the text: (§1) Some compounds of the present disclosure have also been tested for the antiproliferative activity against leukemia cells.

[2] = target: MLL1-WDR5 PPI (Homo sapiens (Human), UniProt P61964); test: fluorescent probe assay of MLL1-WDR5 protein-protein interaction inhibition; format: binding; conditions: fluorescent probe based on MLL1 peptide, incubation 0.5 hrs, read-out: MLL1-WDR5 PPI inhibiting activity IC50
Protocol: In the present disclosure, a fluorescent molecular probe was constructed based on a MLL1 peptide fragment binding to WDR5, for use as a method for study on an aniline compound interfering with WDR5 protein-protein interaction, to determine an inhibition rate of the aniline compound at various concentrations, and then compute the IC50 value. Specific experimental steps: 20 μL of WDR5 protein, 20 μL of a fluorescent probe, and 20 μL of a compound of different concentration gradients were added to a 384-well plate respectively. After incubation for 0.5 hrs, the fluorescence was read on a multifunctional microplate reader at an excitation wavelength of 485 nm and an emission wavelength of 535 nm, to compute the mP value. The inhibition rate was computed as per the formula below, and then the IC50 value was computed using GraphPad software.

[3] = system: methylation level of H3K4; test: inhibition of the methylation level of H3K4 (methyltransferase activity); format: biochemical
[4] = system: MV4-11 human acute mononuclear leukemia cells; test: anti-proliferative activity against leukemia cells MV4-11; format: cell-based; conditions: Homo sapiens, MV4-11, MV4-11 cells; read-out: GI50 (MV-411)
From the text: as §1

Structure (SMILES) | GI50 [1] | IC50 [2] | Whether the methylation level of H3K4 was inhibited [3] | GI50 [4]
CN(C)CCCNC(=O)c1ccc(-c2ccc(N3CCN(C)CC3)c(Nc3ncnc(Cl)c3N)c2)cc1 [Example 28, 3″-((5-amino-6-chloropyrimidin-4-yl)amino)-N-(3-(dimethylamino)propyl)-4″-(4-methylpiperazin-1-yl)-[1,1′-biphenyl]-4-carboxamide] | 24.3 µM | 270 nM | Yes | 29.7 µM
CN1CCN(c2ccc(-c3ccc(N)cc3)cc2Nc2ncnc(Cl)c2N)CC1 [Example 32, N^4-(4′-amino-4-(4-methylpiperazin-1-yl)-[1,1′-biphenyl]-3-yl)-6-chloropyrimidine-e-4,5-diamine] | 27.2 µM | 691 nM | Yes | 40 µM
CN1CCN(C(=O)c2ccc(-c3ccc(N4CCN(C)CC4)c(Nc4ncnc(Cl)c4N)c3)cc2)CC1 [Example 27, (3″-((5-amino-6-chloropyrimidin-4-yl)amino)-4″-(4-methylpiperazin-1-yl)-[1,1′-biphenyl]-4-yl)(4-methylpiperazin-1-yl) methanone] | 34 µM | 217 nM | Yes | 39.2 µM
CN1CCN(c2ccc(-c3ccc(C(=O)N(C)C)cc3)cc2Nc2ncnc(Cl)c2N)CC1 [Example 26, 3″-((5-amino-6-chloropyrimidin-4-yl)amino)-N,N-dimethyl-4″-(4-methylpiperazin-1-yl)-[1,1′-biphenyl]-4-carboxamide] | 30.7 µM | 360 nM | Yes | 48.6 µM
CN1CCN(c2ccc(-c3ccc(C(=O)N4CCOCC4)cc3)c(F)c2Nc2ncnc(Cl)c2N)CC1 [Example 55, (3″-((5-amino-6-chloropyrimidin-4-yl)amino)-2′-fluoro-4″-(4-methylpiperazin-1-yl)-[1,1′-biphenyl]-4-yl)(morpholino)methanone] | 28.9 µM | 117 nM | Yes | 22.5 µM
CN1CCC(C(=O)Nc2cccc(-c3ccc(N4CCN(C)CC4)c(Nc4ncnc(Cl)c4N)c3)c2)CC1 [Example 41, N-(3″-((5-amino-6-chloropyrimidin-4-yl)amino)-4″-(4-methylpiperazin-1-yl)-[1,1′-biphenyl]-3-yl)-1-methylpiperidin-4-carboxamide] | 24.4 µM | 329 nM | Yes | 25.8 µM
CN1CCN(c2ccc(-c3cccc(NC(=O)C4CCOCC4)c3)cc2Nc2ncnc(Cl)c2N)CC1 [Example 40, N-(3″-((5-amino-6-chloropyrimidin-4-yl)amino)-4″-(4-methylpiperazin-1-yl)-[1, 1′-biphenyl]-3-yl)tetrahydro-2H-pyran-4-carboxamide] | 26.2 µM | 328 nM | Yes | 28.4 µM
CN1CCN(c2ccc(-c3ccc(C(=O)NCCCO)cc3)cc2Nc2ncnc(Cl)c2N)CC1 [Example 30, 3″-((5-amino-6-chloropyrimidin-4-yl)amino)-N-(3-hydroxylpropyl)-4″-(4-methylpiperazin-1-yl)-[1,1′-biphenyl]-zole-4-carboxamide] | 32.6 µM | 310 nM | Yes | 27.3 µM

Now those with a lower GI50 [1], led by results:

GI50 [1] | IC50 [2] | Whether the methylation level of H3K4 was inhibited [3] | GI50 [4] | Structure (SMILES)
22.6 µM | 105 nM | Yes | 22.7 µM | CN1CCC(C(=O)Nc2ccc(-c3ccc(N4CCN(C)CC4)c(Nc4ncnc(Cl)c4N)c3F)cc2)CC1 [Example 60, N-(3″-((5-amino-6-chloropyrimidin-4-yl)amino)-2′-fluoro-4″-(4-methylpiperazin-1-yl)-[1,1′-biphenyl]-pyridin-4-yl)-1-methylpiperidin-4-carboxamide]
20.8 µM | 287 nM | Yes | 23.2 µM | CN1CCC(C(=O)Nc2ccc(-c3ccc(N4CCN(C)CC4)c(Nc4ncnc(Cl)c4N)c3)cc2)CC1 [Example 34, N-(3″-((5-amino-6-chloropyrimidin-4-yl)amino)-4″-(4-methylpiperazin-1-yl)-[1,1′-biphenyl]-4-yl)-1-methylpiperidin-4-carboxamide]
20.3 µM | 112 nM | Yes | 19.5 µM | CCN1CCN(C(=O)c2ccc(-c3ccc(N4CCN(C)CC4)c(Nc4ncnc(Cl)c4N)c3F)cc2)CC1 [Example 58, (3″-((5-amino-6-chloropyrimidin-4-yl)amino)-2′-fluoro-4″-(4-methylpiperazin-1-yl)-[1,1′-biphenyl]-4-yl)(4-ethylpiperazin-1-yl)methanone]
18.2 µM | 370 nM | Yes | 16.6 µM | CN1CCN(c2ccc(-c3ccc(C(=O)NCCN4CCCC4)cc3)cc2Nc2ncnc(Cl)c2N)CC1 [Example 29, 3″-((5-amino-6-chloropyrimidin-4-yl)amino)-4″-(4-methylpiperazin-1-yl)-N-(2-(pyrrolidin-1-yl)ethyl)-[11,1′-biphenylyl]-4-carboxamide]
17.3 µM | 21 nM | Yes | 25.6 µM | CN1CCN(c2cc(F)c(-c3ccc(C(=O)NCCCN4CCOCC4)cc3)cc2Nc2ncnc(Cl)c2N)CC1 [Example 69]
14.7 µM | 240 nM | Yes | 10.6 µM | CN1CCN(c2ccc(-n3cc(C(=O)N4CCOCC4)nn3)cc2Nc2ncnc(Cl)c2N)CC1 [Example 47, (1-(3-((5-amino-6-chloropyrimidin-4-yl)amino)-4-(4-methylpiperazin-1-yl)phenyl)-1H-1,2,3-triazole-4-yl)(morpholino)methanone]
13.2 µM | 33 nM | Yes | 20.2 µM | CN1CCN(c2cc(F)c(-c3ccc(C(=O)N4CCC(O)CC4)cc3)cc2Nc2ncnc(Cl)c2N)CC1 [Example 70]
12.5 µM | 261 nM | Yes | 9.32 µM | CCCC(=O)Nc1ccc(-c2ccc(N3CCN(C)CC3)c(Nc3ncnc(Cl)c3N)c2)cc1 [Example 36, N-(3″-((5-amino-6-chloropyrimidin-4-yl)amino)-4″-(4-methylpiperazin-1-yl)-[1,1′-biphenyl]-4-yl)butyramide]
12.3 µM | 36 nM | Yes | 15.7 µM | CN1CCN(c2cc(F)c(-c3ccc(C(=O)NCC4CCOCC4)cc3)cc2Nc2ncnc(Cl)c2N)CC1 [Example 71, 5″-((5-amino-6-chloropyrimidin-4-yl)amino)-2′-fluoro-4″-(4-methylpiperazin-1-yl)-N-((tetrahydro-2H-pyran-4-yl)methyl)-[1,1′-biphenylyl]-4-carboxamide]
6.16 µM | 372 nM | Yes | 2.07 µM | CN1CCN(c2ccc(-c3ccc(NC(=O)C4CCCCC4)cc3)cc2Nc2ncnc(Cl)c2N)CC1 [Example 35, N-(3″-((5-amino-6-chloropyrimidin-4-yl)amino)-4″-(4-methylpiperazin-1-yl)-[1,1′-biphenyl]-4-yl)cyclohexanecarboxamide]
